This note sets out measurements from patent US8871753B2, “Macrocyclic compounds and their use as kinase inhibitors” (Incyte Corporation, priority 2008, dated 2014).

Counter-ions that a name gives are not always drawn. Like-named read-outs stand apart in the source and are kept apart here.

Holding throughout (type): biochemical
Assay [1] deals with T1, human JAK1 (a.a. 837-1142) (Homo sapiens, UniProt P23458).
T1 construct: human JAK1 (a.a. 837-1142); His tag (N); made in house; host or cells: insect cells (baculovirus)
T1 sequence (P23458 849-1154): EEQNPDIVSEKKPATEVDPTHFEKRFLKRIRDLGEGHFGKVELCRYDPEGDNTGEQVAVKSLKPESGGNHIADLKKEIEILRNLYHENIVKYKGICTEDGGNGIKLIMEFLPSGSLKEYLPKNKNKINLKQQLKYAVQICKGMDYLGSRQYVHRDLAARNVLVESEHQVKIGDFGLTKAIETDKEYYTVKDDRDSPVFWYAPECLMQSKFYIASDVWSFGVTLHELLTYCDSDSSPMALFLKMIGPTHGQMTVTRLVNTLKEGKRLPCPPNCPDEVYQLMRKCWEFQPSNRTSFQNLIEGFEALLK
As to the kind of experiment: In vitro JAK kinase assay (HTRF, phosphorylation of a biotinylated peptide), JAK1. Conditions: read-out: JAK1 IC50. Put shortly:
(§1)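 Phosphorylation of a biotinylated peptide by the JAK kinase domain, detected by HTRF with Eu-Py20 and SA-APC. ATP was 90 μM for JAK1, 30 μM for JAK2 and 3 μM for JAK3. Reactions ran 1 h at room temperature and were stopped with EDTA, followed by 40 min antibody binding.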
On the technique in general: In TR-FRET formats the signal depends on donor and acceptor labels being close together.

Assay [2] concerns the target T2, human JAK2 (a.a. 828-1132) (Homo sapiens, UniProt O60674).
T2 construct: JAK2 (a.a. 828-1132); His tag (N); made in house; host or cells: insect cells (baculovirus)
The assay is described as follows: In vitro JAK kinase assay (HTRF, phosphorylation of a biotinylated peptide), JAK2. An outline of the steps:
as §1

Assay [3] has as its target T3, human JAK3 (a.a. 781-1124) (Homo sapiens, UniProt P52333).
T3 construct: JAK3 (a.a. 781-1124); His tag (N); made in house; host or cells: insect cells (baculovirus)
The assay is described as follows: In vitro JAK kinase assay (HTRF, phosphorylation of a biotinylated peptide), JAK3. An outline of the steps:
as §1

For a further assay, the target named is TYK2 (Homo sapiens, UniProt P29597). The assay is described as follows: TYK2 kinase inhibition (Table A1).
TYK2, sequence (P29597 whole entry): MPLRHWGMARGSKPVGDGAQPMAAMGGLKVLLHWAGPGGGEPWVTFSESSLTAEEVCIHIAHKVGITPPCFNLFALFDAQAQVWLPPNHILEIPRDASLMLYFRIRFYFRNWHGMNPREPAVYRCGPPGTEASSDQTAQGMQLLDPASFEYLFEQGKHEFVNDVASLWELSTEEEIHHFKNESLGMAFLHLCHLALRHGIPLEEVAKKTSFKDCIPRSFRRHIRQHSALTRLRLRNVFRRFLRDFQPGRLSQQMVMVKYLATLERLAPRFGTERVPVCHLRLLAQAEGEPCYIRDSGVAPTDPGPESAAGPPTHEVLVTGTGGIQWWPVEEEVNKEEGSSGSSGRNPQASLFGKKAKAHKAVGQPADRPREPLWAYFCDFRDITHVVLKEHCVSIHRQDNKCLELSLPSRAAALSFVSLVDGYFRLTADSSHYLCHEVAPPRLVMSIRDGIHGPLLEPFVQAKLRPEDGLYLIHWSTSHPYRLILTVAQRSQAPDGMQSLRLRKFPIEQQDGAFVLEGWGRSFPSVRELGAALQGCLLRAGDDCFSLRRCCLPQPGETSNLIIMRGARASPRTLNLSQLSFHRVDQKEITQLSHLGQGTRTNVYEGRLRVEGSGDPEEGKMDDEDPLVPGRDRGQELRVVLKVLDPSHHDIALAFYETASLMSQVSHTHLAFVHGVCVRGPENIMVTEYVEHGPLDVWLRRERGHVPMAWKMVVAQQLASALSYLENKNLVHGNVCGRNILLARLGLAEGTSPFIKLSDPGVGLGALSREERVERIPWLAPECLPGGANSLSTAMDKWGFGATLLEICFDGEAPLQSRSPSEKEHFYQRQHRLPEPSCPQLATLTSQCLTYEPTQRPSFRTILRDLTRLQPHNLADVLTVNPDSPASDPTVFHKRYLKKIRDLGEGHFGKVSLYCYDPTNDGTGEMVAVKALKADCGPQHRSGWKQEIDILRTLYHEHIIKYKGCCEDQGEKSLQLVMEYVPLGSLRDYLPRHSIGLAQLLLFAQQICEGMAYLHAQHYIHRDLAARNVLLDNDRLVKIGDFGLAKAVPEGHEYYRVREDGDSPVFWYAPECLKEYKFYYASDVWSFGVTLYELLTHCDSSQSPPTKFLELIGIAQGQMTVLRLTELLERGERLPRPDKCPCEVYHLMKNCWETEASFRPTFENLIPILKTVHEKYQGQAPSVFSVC
Assay [4] concerns the target T4, Recombinant Human Anaplastic Lymphoma Kinase (Homo sapiens, UniProt Q9UM73).
T4 construct: purchased Invitrogen, Carlsbad, Calif
As to the kind of experiment: ALK HTRF kinase assay. Put shortly: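 Biotinylated peptide substrate, recombinant human ALK; detection via europium-chelate antibody to phosphotyrosine paired with streptavidin-APC. Potency expressed as IC50 from four-parameter curve fitting.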

Where [5] appears, read: compound at a concentration of 500 nM or 1 mM (not specified), cells shown as percentage.
[6] abbreviates: method AA1 (90 μM ATP) or AA2 (1000 μM ATP), not stated per value.
The mark [7] stands for this setting: method AA1 (30 μM ATP) or AA2 (1000 μM ATP), not stated per value.
[8] abbreviates: method AA1 (3 μM ATP) or AA2 (1000 μM ATP), not stated per value.
The mark [9] stands for this setting: compound at 500 nM or 1 mM, 90 μM ATP.

T4 sequence (Q9UM73 19-1620): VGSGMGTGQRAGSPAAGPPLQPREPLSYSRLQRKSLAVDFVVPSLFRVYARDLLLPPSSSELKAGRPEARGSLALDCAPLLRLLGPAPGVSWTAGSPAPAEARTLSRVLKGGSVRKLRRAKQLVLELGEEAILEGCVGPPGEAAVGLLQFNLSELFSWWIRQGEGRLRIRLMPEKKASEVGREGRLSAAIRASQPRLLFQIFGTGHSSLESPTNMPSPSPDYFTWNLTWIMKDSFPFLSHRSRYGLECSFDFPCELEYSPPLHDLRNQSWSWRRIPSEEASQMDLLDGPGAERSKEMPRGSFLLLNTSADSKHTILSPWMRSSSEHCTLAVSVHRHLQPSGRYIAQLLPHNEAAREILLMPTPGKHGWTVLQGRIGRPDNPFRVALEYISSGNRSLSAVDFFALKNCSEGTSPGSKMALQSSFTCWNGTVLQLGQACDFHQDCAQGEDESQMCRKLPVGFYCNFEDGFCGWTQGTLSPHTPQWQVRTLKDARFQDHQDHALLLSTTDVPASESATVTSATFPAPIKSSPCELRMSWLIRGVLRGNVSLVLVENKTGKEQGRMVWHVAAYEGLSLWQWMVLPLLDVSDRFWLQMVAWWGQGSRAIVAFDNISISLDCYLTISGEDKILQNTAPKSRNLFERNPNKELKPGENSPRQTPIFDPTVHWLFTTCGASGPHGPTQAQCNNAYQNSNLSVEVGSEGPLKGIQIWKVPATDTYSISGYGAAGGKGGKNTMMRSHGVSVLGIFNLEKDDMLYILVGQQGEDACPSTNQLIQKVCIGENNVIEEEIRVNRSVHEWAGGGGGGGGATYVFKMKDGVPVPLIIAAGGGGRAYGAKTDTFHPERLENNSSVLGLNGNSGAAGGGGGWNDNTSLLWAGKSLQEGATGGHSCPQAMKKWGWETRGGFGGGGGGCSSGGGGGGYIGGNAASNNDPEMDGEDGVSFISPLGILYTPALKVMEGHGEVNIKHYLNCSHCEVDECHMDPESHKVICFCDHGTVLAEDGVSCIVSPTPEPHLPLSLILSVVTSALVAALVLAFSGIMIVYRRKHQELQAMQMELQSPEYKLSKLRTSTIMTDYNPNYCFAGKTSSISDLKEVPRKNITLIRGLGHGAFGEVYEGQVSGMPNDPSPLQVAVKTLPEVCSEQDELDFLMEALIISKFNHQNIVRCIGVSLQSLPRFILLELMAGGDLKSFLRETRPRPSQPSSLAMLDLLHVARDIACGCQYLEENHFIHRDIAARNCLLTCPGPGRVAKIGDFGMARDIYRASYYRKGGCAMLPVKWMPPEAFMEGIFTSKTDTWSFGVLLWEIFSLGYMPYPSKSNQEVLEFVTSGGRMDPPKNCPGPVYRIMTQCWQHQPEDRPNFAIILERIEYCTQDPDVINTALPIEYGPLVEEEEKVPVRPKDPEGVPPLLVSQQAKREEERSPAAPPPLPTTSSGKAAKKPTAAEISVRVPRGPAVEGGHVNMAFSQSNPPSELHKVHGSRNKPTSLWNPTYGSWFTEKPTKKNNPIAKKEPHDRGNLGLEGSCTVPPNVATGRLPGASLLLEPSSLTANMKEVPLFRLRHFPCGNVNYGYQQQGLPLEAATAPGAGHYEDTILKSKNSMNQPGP
T2 sequence (O60674 828-1132): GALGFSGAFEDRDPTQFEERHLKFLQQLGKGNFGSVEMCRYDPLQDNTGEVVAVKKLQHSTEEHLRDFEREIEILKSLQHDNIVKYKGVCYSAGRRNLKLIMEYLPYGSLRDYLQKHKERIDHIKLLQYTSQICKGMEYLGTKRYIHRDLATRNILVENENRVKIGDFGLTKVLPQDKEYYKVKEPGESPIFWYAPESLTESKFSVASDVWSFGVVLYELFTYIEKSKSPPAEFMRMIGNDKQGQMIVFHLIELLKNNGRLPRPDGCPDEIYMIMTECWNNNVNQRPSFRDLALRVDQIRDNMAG
T3 sequence (P52333 781-1124): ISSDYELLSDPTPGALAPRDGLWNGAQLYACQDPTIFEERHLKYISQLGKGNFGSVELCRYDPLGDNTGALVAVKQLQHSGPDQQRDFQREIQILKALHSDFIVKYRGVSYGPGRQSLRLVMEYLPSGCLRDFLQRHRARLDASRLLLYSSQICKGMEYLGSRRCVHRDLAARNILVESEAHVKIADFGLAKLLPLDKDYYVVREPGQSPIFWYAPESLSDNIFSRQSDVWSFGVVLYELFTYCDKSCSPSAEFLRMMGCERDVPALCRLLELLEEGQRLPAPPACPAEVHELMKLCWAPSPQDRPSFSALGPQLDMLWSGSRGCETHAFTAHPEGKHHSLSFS

By IC50 is commonly meant the concentration that gives 50% inhibition. For the compound `O=S1(=O)Nc2cccc(c2)Nc2ncc(Cl)c(n2)Nc2cccc1c2` [Example C7, 6-Chloro-14-thia-2,4,8,15,22-pentaazatetracyclo[14.3.1.1(3,7).1(9,13)]docosa-1(20),3(22),4,6,9(21),10,12,16,18-nonaene 14,14-dioxide trifluoroacetate], the IC50 was 63 nM in assay [1]; 36 nM in assay [2]; 82 nM in assay [3]; 32 nM against TYK2; 1900 nM in assay [4].
On to `O=S(=O)(Nc1ccc2cc1CCc1cccc(c1)Nc1ncc(Cl)c(n1)N2)C1CC1` [Example B158, N-[6-Chloro-2,4,8,22-tetraazatetracyclo[14.3.1.1(3,7).1(9,13)]docosa-1(20), 3(22),4,6,9(21),10,12,16,18-nonaen-12-yl]cyclopropanesulfonamide trifluoroacetate], for which the IC50 in assay [1] (Table B1) was 0.15 nM; in assay [2] (Table B1), 0.15 nM; in assay [3] (Table B1), 0.64 nM; on TYK2 (Table B1), 0.49 nM. Further, the “ALK % of inhibition at a concentration of 500 nM or 1 mM” value (“ALK % of inhibition” for short) in assay [4] (setting [5]) came out at 71%.
With `O=C(Nc1ccc2cc1CCc1cncc(c1)Nc1ncc(Cl)c(n1)N2)N[C@H]1CCN(C(=O)c2ccno2)C1` [Example B271, N-[6-Chloro-2,4,8,18,22-pentaazatetracyclo[14.3.1.1(3,7).1(9,13)]docosa-1(20),3(22),4,6,9(21),10,12,16,18-nonaen-12-yl]-N′-[(3S)-1-(isoxazol-5-ylcarbonyl)pyrrolidin-3-yl]urea bis(trifluoroacetate)], the IC50 in assay [1] (Table B1) is 8.7 nM; in assay [2] (Table B1), 440 nM; in assay [3] (Table B1) it was > 10000 nM; on TYK2 (Table B1), 847 nM. In addition, the “ALK % of inhibition” value in assay [4] (setting [5]) came out at 10%.
With `O=C(Nc1ccc2cc1CCc1cccc(c1)Nc1ncc(Cl)c(n1)N2)C1CCN(C(=O)Cc2ccccc2)CC1` [Example A35, N-[6-Chloro-2,4,8,22-tetraazatetracyclo[14.3.1.1(3,7).1(9,13)]docosa-1(20),3(22),4,6,9(21),10,12,16,18-nonaen-12-yl]-1-(phenylacetyl)piperidine-4-carboxamide trifluoroacetate], the half-maximal inhibitory concentration (IC50) was 42 nM in assay [1] (setting [6]), 62 nM in assay [2] (setting [7]), 82 nM in assay [3] (setting [8]) and 228 nM against TYK2. Further, the “ALK % of inhibition” value in assay [4] (setting [9]) came out at 38%.
In the case of `Clc1cnc2nc1Nc1cccc(c1)CCSCc1cccc(c1)N2` [Example D34, 6-Chloro-16-thia-2,4,8,24-tetraazatetracyclo[16.3.1.1(3,7).1(9,13)]tetracosa-1(22),3(24),4,6,9(23),10,12,18,20-nonaene trifluoroacetate], the concentration for half-maximal inhibition (IC50) in assay [1] (Table D1) is 123 nM; in assay [2] (Table D1), 91 nM; in assay [3] (Table D1) it was 136 nM; at TYK2 (Table D1), 211 nM; in assay [4] (Table D1, 90 μM ATP), > 1000 nM.
Turning to `N#Cc1ccc(N2CCC(CC(=O)Nc3ccc4cc3CCc3cncc(c3)Nc3ncc(Cl)c(n3)N4)CC2)cc1` [Example A221, N-[6-Chloro-2,4,8,18,22-pentaazatetracyclo[14.3.1.1(3,7).1(9,13)]docosa-1(20),3(22),4,6,9(21),10,12,16,18-nonaen-12-yl]-2-[1-(4-cyanophenyl)piperidin-4-yl]acetamide tris(trifluoroacetate)], the IC50 was 44 nM in assay [1] (setting [6]), > 200 nM in assay [2] (setting [7]), > 200 nM in assay [3] (setting [8]) and > 200 nM against TYK2. Moreover, the “ALK % of inhibition” value in assay [4] (setting [9]) is 22%.
`Cc1ccc(Cl)cc1NC(=O)Nc1ccc2cc1CCc1cccc(c1)Nc1ncc(Cl)c(n1)N2` [Example B123, N-(5-Chloro-2-methylphenyl)-N′-[6-chloro-2,4,8,22-tetraazatetracyclo[14.3.1.1(3,7).1(9,13)]docosa-1(20),3(22),4,6,9(21),10,12,16,18-nonaen-12-yl]urea trifluoroacetate]: the 50% inhibitory concentration (IC50) in assay [1] (Table B1) turned out to be 7.9 nM; in assay [2] (Table B1) it was 15 nM; in assay [3] (Table B1), 110 nM; against TYK2 (Table B1), 32 nM. For the same compound, in assay [4] (setting [5]), the “ALK % of inhibition” value is given as 16%.
On the same counts, the results for `O=C(Nc1ccc2cc1CCc1cncc(c1)Nc1ncc(Cl)c(n1)N2)N1CCN(c2cnccn2)CC1` [Example B294, N-[6-Chloro-2,4,8,18,22-pentaazatetracyclo[14.3.1.1(3,7).1(9,13)]docosa-1(20),3(22),4,6,9(21),10,12,16,18-nonaen-12-yl]-4-pyrazin-2-ylpiperazine-1-carboxamide tetrakis(trifluoroacetate)] are 19 nM, 150 nM, > 200 nM, 85 nM and 54%.
As for `O=C(CCNC(=O)Nc1ccccc1)Nc1ccc2cc1CCc1cccc(c1)Nc1ncc(Cl)c(n1)N2` [Example A67, 3-[(Anilinocarbonyl)amino]-N-[6-chloro-2,4,8,22-tetraazatetracyclo[14.3.1.1(3,7).1(9,13)]docosa-1(20),3(22),4,6,9(21),10,12,16,18-nonaen-12-yl]propanamide trifluoroacetate], the concentration for half-maximal inhibition (IC50) was 8 nM in assay [1] (setting [6]), 2.8 nM in assay [2] (setting [7]), 7.7 nM in assay [3] (setting [8]) and 10 nM at TYK2. In addition, the “ALK % of inhibition” value in assay [4] (setting [9]) was determined as 40%.
On the same counts, the results for `O=C(CCC1CCNCC1)Nc1ccc2cc1CCc1cccc(c1)Nc1ncc(Cl)c(n1)N2` [Example A116, N-[6-Chloro-2,4,8,22-tetraazatetracyclo[14.3.1.1(3,7).1(9,13)]docosa-1(20),3(22),4,6,9(21),10,12,16,18-nonaen-12-yl]-3piperidin-4-ylpropanamide bis(trifluoroacetate)] are 14 nM, 20 nM, 44 nM, 33 nM and 27%.
The like results for `O=C(Nc1ccc2cc1CCc1cccc(c1)Nc1ncc(Cl)c(n1)N2)C1CCN(C(=S)Nc2ccccc2)CC1` [Example A43, 1-(Anilinocarbonothioyl)-N-[6-chloro-2,4,8,22-tetraazatetracyclo[14.3.1.1(3,7).1(9,13)]docosa-1(20),3(22),4,6,9(21),10,12,16,18-nonaen-12-yl]piperidine-4-carboxamide trifluoroacetate] were, in that order, 1 nM, 4.8 nM, 36 nM, 48 nM and 32%.
`Cc1noc(C)c1C(=O)N1CCC(C(=O)Nc2ccc3cc2CCc2cccc(c2)Nc2ncc(Cl)c(n2)N3)CC1` [Example A34, N-[6-Chloro-2,4,8,22-tetraazatetracyclo[14.3.1.1(3,7).1(9,13)]docosa-1(20), 3(22),4,6,9(21),10,12,16,18-nonaen-12-yl]-1-[(3,5-dimethylisoxazol-4-yl)carbonyl]piperidine-4-carboxamide trifluoroacetate]: the IC50 in assay [1] (setting [6]) was 446 nM; in assay [2] (setting [7]) it was 220 nM; in assay [3] (setting [8]), > 1000 nM; against TYK2 it was 343 nM. The “ALK % of inhibition” value in assay [4] (setting [9]) is recorded as 5%.
For `O=C(CC1CCN(C(=O)c2ccccc2)CC1)Nc1ccc2cc1CCc1cccc(c1)Nc1ncc(Cl)c(n1)N2` [Example A56, 2-(1-Benzoylpiperidin-4-yl)-N-[6-chloro-2,4,8,22-tetraazatetracyclo[14.3.1.1(3,7).1(9,13)]docosa-1(20),3(22),4,6,9(21),10,12,16,18-nonaen-12-yl]acetamide trifluoroacetate], the IC50 in assay [1] (setting [6]) turned out to be 4.2 nM; in assay [2] (setting [7]) it was 7.3 nM; in assay [3] (setting [8]), 90 nM; against TYK2 it was 10 nM. In addition, the “ALK % of inhibition” value in assay [4] (setting [9]) is recorded as 26%.
The like results for `N#Cc1c(N2CCC(CC(=O)Nc3ccc4cc3CCc3cncc(c3)Nc3ncc(Cl)c(n3)N4)CC2)cccc1C(F)(F)F` [Example A235, N-[6-Chloro-2,4,8,18,22-pentaazatetracyclo[14.3.1.1(3,7).1(9,13)]docosa-1(20),3(22),4,6,9(21),10,12,16,18-nonaen-12-yl]-2-{1-[2-cyano-3-(trifluoromethyl)phenyl]piperidin-4-yl}acetamide tris(trifluoroacetate)] were, in that order, 12 nM, 326 nM, > 400 nM, > 400 nM and 4.6%.
On to `O=C(Nc1ccc2cc1CCc1cccc(c1)Nc1ncc(Cl)c(n1)N2)c1ccco1` [Example B33, N-[6-Chloro-2,4,8,22-tetraazatetracyclo[14.3.1.1(3,7).1(9,13)]docosa-1(20), 3(22),4,6,9(21),10,12,16,18-nonaen-12-yl]-2-furamide trifluoroacetate], for which the 50% inhibitory concentration (IC50) came to 2.1 nM in assay [1] (Table B1); 2.6 nM in assay [2] (Table B1); 44 nM in assay [3] (Table B1); 9.7 nM against TYK2 (Table B1); 820 nM in assay [4] (Table B1, cells without percent sign).
